Like-named read-outs stand apart in the source and are kept apart here.
Tests used:
EGFR (L858R T790M C797S) = target: T1, EGFR (L858R T790M C797S) (Homo sapiens, UniProt P00533, C797S/L858R/T790M); assay: Biochemical EGFR inhibition assay (Caliper mobility shift), EGFR LRTMCS mutant; conditions: inhibitory activity against EGFR LRTMCS mutant; apparent IC50; read-out: Ext Enz LRTMCS
T1 construct: purchased SignalChem E10-122VG
Procedure, shortened: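 Caliper mobility shift read-out: product and substrate peptides separated by electrophoresis and quantified. Reactions at 25° C. taken to 10–20% peptide phosphorylation, quenched with 35 mM EDTA. Apparent IC50 from percent activity vs log [compound].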

[1] = test system: phosphorylation of EGFR (Tyr1068) in NCI-H1975 cell line that harbors the EGFR L858R T790M mutations; assay: NCI-H1975 pEGFR AlphaLISA assay; assay type: cell-based; conditions: 4-5 hours incubation, read-out: Ext pEGFR H1975
Procedure, shortened: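 Phospho-EGFR Tyr1068 AlphaLISA readout: lysates taken from compound-treated H1975 cells (L858R T790M EGFR) after a 4-5 h exposure at 37 °C. Cells had adhered overnight beforehand. IC50 derived by plotting % pEGFR inhibition against log compound concentration.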

[2] = Homo sapiens, NCI-H1975, inhibition of phosphorylation of mutant EGFR in NCI-H1975 cells
[3] = inhibition of phosphorylation of mutant EGFR in NCI-H1975 cells

T1 sequence (P00533 25-1210 T790M/C797S/L858R): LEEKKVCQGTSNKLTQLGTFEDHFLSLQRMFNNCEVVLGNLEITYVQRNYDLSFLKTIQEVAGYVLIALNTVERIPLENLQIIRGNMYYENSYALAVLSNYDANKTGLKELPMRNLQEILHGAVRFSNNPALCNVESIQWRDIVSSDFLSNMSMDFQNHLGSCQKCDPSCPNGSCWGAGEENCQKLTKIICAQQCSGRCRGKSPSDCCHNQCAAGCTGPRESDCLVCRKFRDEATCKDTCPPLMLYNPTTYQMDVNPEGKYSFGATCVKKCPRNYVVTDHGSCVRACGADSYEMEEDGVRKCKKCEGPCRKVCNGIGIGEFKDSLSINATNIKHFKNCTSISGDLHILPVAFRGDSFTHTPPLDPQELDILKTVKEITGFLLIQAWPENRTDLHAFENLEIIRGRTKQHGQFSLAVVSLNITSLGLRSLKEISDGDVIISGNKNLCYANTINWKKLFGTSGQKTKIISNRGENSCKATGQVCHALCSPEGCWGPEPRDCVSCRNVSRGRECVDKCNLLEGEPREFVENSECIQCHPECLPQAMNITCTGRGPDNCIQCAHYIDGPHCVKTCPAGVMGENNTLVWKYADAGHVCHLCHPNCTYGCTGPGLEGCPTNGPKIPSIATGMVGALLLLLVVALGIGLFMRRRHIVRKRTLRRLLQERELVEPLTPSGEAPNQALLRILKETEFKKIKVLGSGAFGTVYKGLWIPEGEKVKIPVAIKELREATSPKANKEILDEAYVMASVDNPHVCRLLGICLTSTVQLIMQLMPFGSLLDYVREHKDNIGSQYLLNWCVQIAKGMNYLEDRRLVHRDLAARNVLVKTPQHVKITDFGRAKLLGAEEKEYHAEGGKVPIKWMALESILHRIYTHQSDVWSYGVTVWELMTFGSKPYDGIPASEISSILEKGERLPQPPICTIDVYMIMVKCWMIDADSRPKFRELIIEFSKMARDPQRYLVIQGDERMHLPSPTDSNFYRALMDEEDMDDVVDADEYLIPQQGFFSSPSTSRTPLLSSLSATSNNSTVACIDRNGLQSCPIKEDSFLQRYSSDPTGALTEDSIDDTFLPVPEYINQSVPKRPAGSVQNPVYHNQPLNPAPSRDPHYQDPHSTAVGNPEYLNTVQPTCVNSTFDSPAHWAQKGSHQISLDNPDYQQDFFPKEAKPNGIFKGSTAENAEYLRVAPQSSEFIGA

Row | SMILES | IC50 (EGFR (L858R T790M C797S)) | IC50 [1, 2] | IC50 [1, 3]
1 | CC(C)c1ccc(N2C[C@H](CS(C)(=O)=O)[C@H]2C)c2cnc(Nc3ccnc(N4CC[C@](F)(CO)C4)n3)cc12 (single isomer, unassigned) [Compound 270, [(3R)-3-fluoro-1-[4-({8-[(2R,3S)-3-(methanesulfonylmethyl)-2-methylazetidin-1-yl]-5-(propan-2-yl)isoquinolin-3-yl}amino)pyrimidin-2-yl]pyrrolidin-3-yl]methanol or [(3S)-3-fluoro-1-[4-({8-[(2R,3S)-3-(methanesulfonylmethyl)-2-methylazetidin-1-yl]-5-(propan-2-yl)isoquinolin-3-yl}amino)pyrimidin-2-yl]pyrrolidin-3-yl]methanol] | ≤ 15 nM | 10.1 to 20 nM | 
2 | CC(C)c1ccc(N2C[C@H](CS(C)(=O)=O)[C@H]2C)c2cnc(Nc3ccnc(N4CC[C@](F)(CO)C4)n3)cc12 (single isomer, unassigned) [Compound 271, [(3S)-3-fluoro-1-[4-({8-[(2R,3S)-3-(methanesulfonylmethyl)-2-methylazetidin-1-yl]-5-(propan-2-yl)isoquinolin-3-yl}amino)pyrimidin-2-yl]pyrrolidin-3-yl]methanol or [(3R)-3-fluoro-1-[4-({8-[(2R,3S)-3-(methanesulfonylmethyl)-2-methylazetidin-1-yl]-5-(propan-2-yl)isoquinolin-3-yl}amino)pyrimidin-2-yl]pyrrolidin-3-yl]methanol] | ≤ 15 nM |  | ≤ 10 nM
3 | CCS(=N)(=O)CC1CN(c2ccc(C(C)C)c3cc(Nc4ccnc(N5CCC(OC)C(F)C5)n4)ncc23)C1 (single isomer, unassigned) [Compound 275, (S)-ethyl({1-[3-({2-[(3R,4S)-3-fluoro-4-methoxypiperidin-1-yl]pyrimidin-4-yl}amino)-5-(propan-2-yl)isoquinolin-8-yl]azetidin-3-yl}methyl)imino-λ^6-sulfanone or (R)-ethyl({1-[3-({2-[(3R,4S)-3-fluoro-4-methoxypiperidin-1-yl]pyrimidin-4-yl}amino)-5-(propan-2-yl)isoquinolin-8-yl]azetidin-3-yl}methyl)imino-λ^6-sulfanone] | 15.1 to 20 nM |  | 30.1 to 50 nM
4 | CCS(=O)(=O)CC1CN(c2ccc(C(C)C)c3cc(Nc4ccnc(N5CC[C@](C)(O)[C@H](F)C5)n4)ncc23)C1 (single isomer, unassigned) [Compound 277] | ≤ 15 nM | 10.1 to 20 nM | 
5 | [2H]C([2H])([2H])O[C@@H]1CCN(c2nccc(Nc3cc4c(C(C)C)cnc(N5C[C@H](CS(C)(=O)=O)[C@H]5C)c4cn3)n2)C[C@@H]1F (single isomer, unassigned) [Compound 284] | ≤ 15 nM | ≤ 10 nM | 
6 | [2H]C([2H])([2H])O[C@H]1CCN(c2nccc(Nc3cc4c(C(C)C)cnc(N5C[C@H](CS(C)(=O)=O)[C@H]5C)c4cn3)n2)C[C@H]1F (single isomer, unassigned) [Compound 285] | ≤ 15 nM | ≤ 10 nM | 
7 | [2H]C([2H])([2H])O[C@H]1CCN(c2nccc(Nc3cc4c(C(C)C)ccc(N5CC(CS(C)(=O)=O)C5)c4cn3)n2)CC1(F)F (single isomer, unassigned) [Compound 286, N-{2-[(4S)-3,3-difluoro-4-(^2H3)methoxypiperidin-1-yl]pyrimidin-4-yl}-8-[3-(methanesulfonylmethyl)azetidin-1-yl]-5-(propan-2-yl)isoquinolin-3-amine or N-{2-[(4R)-3,3-difluoro-4-(^2H3)methoxypiperidin-1-yl]pyrimidin-4-yl}-8-[3-(methanesulfonylmethyl)azetidin-1-yl]-5-(propan-2-yl)isoquinolin-3-amine] | 15.1 to 20 nM | 10.1 to 20 nM | 
8 | [2H]C([2H])([2H])O[C@H]1CCN(c2nccc(Nc3cc4c(C(C)C)ccc(N5CC(CS(C)(=O)=O)C5)c4cn3)n2)CC1(F)F (single isomer, unassigned) [Compound 287, N-{2-[(4R)-3,3-difluoro-4-(^2H3)methoxypiperidin-1-yl]pyrimidin-4-yl}-8-[3-(methanesulfonylmethyl)azetidin-1-yl]-5-(propan-2-yl)isoquinolin-3-amine or N-{2-[(4S)-3,3-difluoro-4-(^2H3)methoxypiperidin-1-yl]pyrimidin-4-yl}-8-[3-(methanesulfonylmethyl)azetidin-1-yl]-5-(propan-2-yl)isoquinolin-3-amine] | 20.1 to 30 nM |  | 10.1 to 20 nM
9 | CO[C@@H]1[C@H](O)CN(c2nccc(Nc3cc4c(C(C)C)ccc(N5CC(CS(C)(=O)=O)C5)c4cn3)n2)CC1(F)F (single isomer, unassigned) [Compound 291, (3R,4R)-5,5-difluoro-1-[4-({8-[3-(methanesulfonylmethyl)azetidin-1-yl]-5-(propan-2-yl)isoquinolin-3-yl}amino)pyrimidin-2-yl]-4-methoxypiperidin-3-ol or (3S,4S)-5,5-difluoro-1-[4-({8-[3-(methanesulfonylmethyl)azetidin-1-yl]-5-(propan-2-yl)isoquinolin-3-yl}amino)pyrimidin-2-yl]-4-methoxypiperidin-3-ol] | ≤ 15 nM |  | ≤ 10 nM
10 | CCS(=O)(=O)CC1CN(c2ccc(C(C)C)c3cc(Nc4ccnc(N5C[C@@H](O)[C@@H](OC)C(F)(F)C5)n4)ncc23)C1 (single isomer, unassigned) [Compound 294, (3R,4R)-1-{4-[(8-{3-[(ethanesulfonyl)methyl]azetidin-1-yl}-5-(propan-2-yl)isoquinolin-3-yl)amino]pyrimidin-2-yl}-5,5-difluoro-4-methoxypiperidin-3-ol or (3S,4S)-1-{4-[(8-{3-[(ethanesulfonyl)methyl]azetidin-1-yl}-5-(propan-2-yl)isoquinolin-3-yl)amino]pyrimidin-2-yl}-5,5-difluoro-4-methoxypiperidin-3-ol] | 20.1 to 30 nM | ≤ 10 nM | 
11 | CO[C@H]1CCN(c2nccc(Nc3cc4c(C(C)C)ccc(N5C[C@H](CS(C)(=O)=O)[C@H]5C)c4cn3)n2)C[C@H]1OCCO (single isomer, unassigned) [Compound 295, 2-{[(3R,4S)-1-[4-({8-[(2R,3S)-3-(methanesulfonylmethyl)-2-methylazetidin-1-yl]-5-(propan-2-yl)isoquinolin-3-yl}amino)pyrimidin-2-yl]-4-methoxypiperidin-3-yl]oxy}ethan-1-ol or 2-{[(3S,4R)-1-[4-({8-[(2R,3S)-3-(methanesulfonylmethyl)-2-methylazetidin-1-yl]-5-(propan-2-yl)isoquinolin-3-yl}amino)pyrimidin-2-yl]-4-methoxypiperidin-3-yl]oxy}ethan-1-ol] | ≤ 15 nM | ≤ 10 nM | 
12 | CO[C@@H]1CCN(c2nccc(Nc3cc4c(C(C)C)ccc(N5C[C@H](CS(C)(=O)=O)[C@H]5C)c4cn3)n2)C[C@@H]1OCCO (single isomer, unassigned) [Compound 296, 2-{[(3S,4R)-1-[4-({8-[(2R,3S)-3-(methanesulfonylmethyl)-2-methylazetidin-1-yl]-5-(propan-2-yl)isoquinolin-3-yl}amino)pyrimidin-2-yl]-4-methoxypiperidin-3-yl]oxy}ethan-1-ol or 2-{[(3R,4S)-1-[4-({8-[(2R,3S)-3-(methanesulfonylmethyl)-2-methylazetidin-1-yl]-5-(propan-2-yl)isoquinolin-3-yl}amino)pyrimidin-2-yl]-4-methoxypiperidin-3-yl]oxy}ethan-1-ol] | 30.1 to 100 nM | 10.1 to 20 nM | 
13 | CNCCO[C@@H]1CCN(c2nccc(Nc3cc4c(C(C)C)ccc(N5C[C@H](CS(C)(=O)=O)[C@H]5C)c4cn3)n2)CC1(F)F (single isomer, unassigned) [Compound 300, N-{2-[(4R)-3,3-difluoro-4-[2-(methylamino)ethoxy]piperidin-1-yl]pyrimidin-4-yl}-8-[(2R,3S)-3-(methanesulfonylmethyl)-2-methylazetidin-1-yl]-5-(propan-2-yl)isoquinolin-3-amine or N-{2-[(4S)-3,3-difluoro-4-[2-(methylamino)ethoxy]piperidin-1-yl]pyrimidin-4-yl}-8-[(2R,3S)-3-(methanesulfonylmethyl)-2-methylazetidin-1-yl]-5-(propan-2-yl)isoquinolin-3-amine] | ≤ 15 nM | ≤ 10 nM | 
14 | CNCCO[C@@H]1CCN(c2nccc(Nc3cc4c(C(C)C)ccc(N5C[C@H](CS(C)(=O)=O)[C@H]5C)c4cn3)n2)CC1(F)F (single isomer, unassigned) [Compound 301, N-{2-[(4S)-3,3-difluoro-4-[2-(methylamino)ethoxy]piperidin-1-yl]pyrimidin-4-yl}-8-[(2R,3S)-3-(methanesulfonylmethyl)-2-methylazetidin-1-yl]-5-(propan-2-yl)isoquinolin-3-amine or N-{2-[(4R)-3,3-difluoro-4-[2-(methylamino)ethoxy]piperidin-1-yl]pyrimidin-4-yl}-8-[(2R,3S)-3-(methanesulfonylmethyl)-2-methylazetidin-1-yl]-5-(propan-2-yl)isoquinolin-3-amine] | ≤ 15 nM |  | ≤ 10 nM
